Reference: PubChem BioAssay (NCI)
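In this assay, cells in 96-well plates receive the compound at five concentrations for 48 hours. Endpoints are linearly interpolated between the surrounding concentrations. GI50: concentration for 50% inhibition of growth. TGI: concentration producing complete growth inhibition.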

Columns and labels:
Assay in all cases: NCI tumour cell line growth inhibition, 48 h
[1] = test system: SNB-19 CNS
[2] = test system: HCT-116 colon
[3] = test system: OVCAR-3 ovarian
[4] = test system: HL-60(TB) leukemia
[5] = test system: SK-OV-3 ovarian
[6] = test system: KM12 colon
[7] = test system: UO-31 renal
[8] = test system: OVCAR-5 ovarian
[9] = test system: NCI/ADR-RES ovarian

SMILES	TGI [1] [µM]	TGI [2] [µM]	TGI [3] [µM]	TGI [4] [µM]	TGI [5] [µM]	TGI [6] [µM]	TGI [7] [µM]	TGI [8] [µM]	GI50 [9] [µM]	TGI [9] [µM]	GI50 [1] [µM]	GI50 [2] [µM]	GI50 [3] [µM]	GI50 [4] [µM]	GI50 [5] [µM]	GI50 [7] [µM]	GI50 [8] [µM]	GI50 [6] [µM]
O=c1c(O)c(-c2ccc(O)c(O)c2)oc2cc(O)ccc12	> 100	26.2	62	> 84.1	59.9	31	23.4	42.1										
CCCCCCCCN(CCCCCCCC)C(=N)c1ccnc2ccccc12	3.17	2.55	2.54	2.97	3		2.29	3.05	1.15	2.5	1.55	1.24	1.2	1.3	1.61	0.953	1.5	
Cc1cc(N(CCC#N)CCC#N)ccc1/C=C1/CN(N2C(=O)/C(=C/c3ccc(N(CCC#N)CCC#N)cc3C)N=C2c2ccccc2)C(c2ccccc2)=N1	> 100	> 100	> 100	> 100		> 100	> 100	> 100										
Nn1c(CCCl)nc2c(Br)cc(Br)cc2c1=O	> 100	53	39.8	6.5	> 94.1	38.1	> 75.6	> 71.5										
CCOC(=O)C12CCCC1(O)N(NC(=O)c1cccc(Cl)c1)C(C)=C2C(=O)OC (configuration not stated)	> 100	> 100	> 100	> 100	> 100	> 100	> 100	> 100										
OCCN1CCN(CCO)Cc2ccccc2OCCOc2ccccc2C1	> 100	> 100	> 100		> 100	> 100	> 100	> 100										
C#C[C@@]1(O)[C@@H](CO)O[C@@H](n2cc(Cl)c3c(N)ncnc32)[C@@H]1O	0.294	> 100	1.79	0.197	0.517	> 100	1.78	> 84.2	0.0546	0.777	0.021	0.0221	0.233	0.0341	0.143	0.173	0.425	0.142
CCc1ccccc1NC(=O)/C(CC(=O)c1c(C)n([O-])c2ccccc2[n+]1=O)=N\NS(=O)(=O)c1ccc(C)cc1	> 100	55.3	80.2	41.6	> 100	> 100	> 100	> 100										
COc1ccc2[nH]c3c4c(c5cc(C(C)(C)C)ccc5c3c2c1)C(=O)N(c1ccccc1)C4=O	> 100	> 100	> 100	> 100	> 100	> 100	> 100	> 100										
C/C(=N\O)c1sc(-n2nc(-c3ccccc3)cc2-c2ccccc2)nc1C	17.9	17.1	> 31.6	23		17.3	15.3											
CC1(C)CC23C(=O)N(c4ccccc4)C(=Nc4ccccc4)NC2=CC(C#N)=C(C#N)C3O1 (configuration not stated)	> 100	> 100	> 100	89.9		> 100	> 100	> 100										
CC(=O)CC(=O)N(CCN(C(=O)CC(C)=O)c1ccccc1)c1ccccc1	> 100	> 100	> 100	> 100	> 100	> 100	> 100	> 100										
O=C1c2ccccc2C(=O)N1/N=C\c1ccc(Br)cc1	> 100	> 100	> 100	> 100	> 100	> 100	> 100	> 100			> 100	> 100	> 100	> 100		> 100	> 100	> 100
C=C(C)C1CC=C(C(=O)O)CC1 (configuration not stated)	4330	1500	1660	2630	> 5000	2140	4030	> 5000										
COc1cc(C(=O)C/C(CCC(=O)Nc2ccccc2[N+](=O)[O-])=N\NC(=O)C(N)=O)ccc1O	> 100	> 100	> 100	> 100	> 100	> 100	> 100	> 100										
CCCCCCCCCOC(=S)NC	> 100		36.1	34.1	45.7	57	23.2	38.1										
